Measured values from patent US4751302A, “Indazole derivatives” (priority 1982, dated 1988).

Columns and labels:
[1] = test system: Carrageenin edema in rat's paw; test: Carrageenin Edema Test in Rat's Paw (anti-inflammatory activity, Table 1); assay type: in vivo; settings: 100 mg/kg oral, hydrochloride, rat
Procedure: An anti-inflammatory activity was measured by orally administering 100 mg/kg of a hydrochloride of the indazole derivative of this invention as set forth in Table 1 to an animal in accordance with the standard method of Carrageenin Edema Test in Rat's Paw described in C. A. Winter et al., Proc. Soc. Exp. Biol. Med., 111, 544 (1962).

in vivo = settings: mouse, ip, intraperitoneal, hydrochloride, male ddy mice

Compound | inhibition in vivo at 100 mg/kg [1] | LD50 (in vivo)
CC(CCNc1nn(CCC(C)N2CCCCC2)c2ccc(O)cc12)N(C)C (stereo not drawn) [(137), 1-(3-Piperidinobutyl)-3-(3-dimethylaminobutylamino)-5-hydroxyindazole] | 21% | 258 mg/kg
CCN(CC)CCCNc1nn(CCC(C)N(C)C)c2ccc(O)cc12 (stereo not drawn) [(138), 1-(3-Dimethylaminobutyl)-3-(3-diethylaminopropylamino)-5-hydroxyindazole] | 29% | 213 mg/kg
CC(CCn1nc(NCCCN2CCCCC2)c2cc(O)ccc21)N(C)C (stereo not drawn) [(139), 1-(3-Dimethylaminobutyl)-3-(3-piperidinopropylamino)-5-hydroxyindazole] | 28% | 249 mg/kg
CC(CCn1nc(NCCC(C)N2CCCCC2)c2cc(O)ccc21)N(C)C (stereo not drawn) [(140), 1-(3-Dimethylaminobutyl)-3-(3-piperidinobutylamino)-5-hydroxyindazole] | 27% | 313 mg/kg
CCN(CC)C(CCNc1nn(CCC(C)N(C)C)c2ccc(O)cc12)CC(C)C (stereo not drawn) [(141), 1-(3-Dimethylaminobutyl)-3-(3-diethylamino-5-methylhexylamino)-5-hydroxyindazole] | 21% | 340 mg/kg
Oc1ccc2c(c1)c(NCCCN1CCCCCC1)nn2CCCN1CCCC1 [(142), 1-(3-Pyrrolidinopropyl)-3-(3-homopiperidinopropylamino)-5-hydroxyindazole] | 28% | 349 mg/kg
CC1CCCCN1CCCNc1nn(CCCN2CCCC2)c2ccc(O)cc12 (stereo not drawn) [(143), 1-(3-Pyrrolidinopropyl)-3-[3-(2-methylpiperidino)propylamino]-5-hydroxyindazole] | 30% | 291 mg/kg
CN1CCN(CCCNc2nn(CCCN3CCCC3)c3ccc(O)cc23)CC1 [(144), 1-(3-Pyrrolidinopropyl)-3-[3-(4-methylpiperazino)propylamino]-5-hydroxyindazole] | 26% | 281 mg/kg
CCN(CC)CCCNc1nn(CCCN2CCOCC2)c2ccc(O)cc12 [(145), 1-(3-Morpholinopropyl)-3-(3-diethylaminopropylamino)-5-hydroxyindazole] | 30% | 211 mg/kg
CC1CCCC(C)N1CCCNc1nn(CCCN2CCOCC2)c2ccc(O)cc12 (stereo not drawn) [(146), 1-(3-Morpholinopropyl)-3-[3-(2,6-dimethylpiperidino)propylamino]-5-hydroxyindazole] | 32% | 198 mg/kg
Oc1ccc2c(c1)c(NCCCN1CCC(Cl)CC1)nn2CCCN1CCOCC1 [(147), 1-(3-Morpholinopropyl)-3-[3-(4-chloropiperidino)propylamino]-5-hydroxyindazole] | 29% | 181 mg/kg
Oc1ccc2c(c1)c(NCCCN1CCC(O)CC1)nn2CCCN1CCOCC1 [(148), 1-(3-Morpholinopropyl)-3-[3-(4-hydroxypiperidino)propylamino]-5-hydroxyindazole] | 30% | 245 mg/kg
Nc1nn(CCCN2CCOCC2)c2ccccc12 [(149), 1-(3-Morpholinopropyl)-3-aminoindazole] | 50% | 261 mg/kg
CC(CCn1nc(N)c2ccccc21)N1CCOCC1 (stereo not drawn) [(150), 1-(3-Morpholinobutyl)-3-aminoindazole] | 39% | 270 mg/kg
Nc1nn(CCN2CCOCC2)c2ccccc12 [(151), 1-(2-Morpholinoethyl)-3-aminoindazole] | 48% | 290 mg/kg
CC(CCNc1n[nH]c2ccccc12)N1CCOCC1 (stereo not drawn) [(153), 3-(3-Morpholinobutylamino)indazole] | 51% | 331 mg/kg
c1ccc2c(NCCN3CCOCC3)n[nH]c2c1 [(154), 3-(2-Morpholinoethylamino)indazole] | 50% | 351 mg/kg
CCN(CC)CCCNc1nn(CCCN2CCOCC2)c2ccccc12 [(155), 1-(3-Morpholinopropyl)-3-(3-diethylaminopropylamino)indazole] | 30% | 291 mg/kg
